In patent US20160177395A1, “BIOMARKERS FOR THE PREDICTION OF RENAL INJURY” (priority 2007, published 2016):
Several values for one entry are separate records, joined by “and”; a condition that tells them apart may be missing. Equal entries are not always repeated.

How the values were obtained:
[1] = system: kidney tissues of treated or untreated rats; experiment: Real-time qRT-PCR of signature amplicons, validation stage, labeled and un-labeled samples (Table 23); details: for H31883_DB71_seg13 normalized qRT-PCR result / MUSCYCG1R_DB81_seg19-20 normalized qRT-PCR result / W41270_DB81_seg11 normalized qRT-PCR result: labeled sample, one line per animal
From the text: New primers were designed for part of the transcripts, and new conditions for several qRT-PCR reactions were used, as described below.
The measurements were normalized in two steps. First—according to the house-keeping-genes normalization factor, and second—each plate was normalized according to ratio of the intensity measurements from samples appearing in it and in the shuffled (normalization) plate (Table 25 provides the plates details and the section “Inter-Plate Normalization” provides details of the normalization process). The normalized values were further scaled by a factor, for ease of viewing.
RT was prepared and qRT-PCR performed and analyzed as described hereinabove. qRT-PCR was performed for the four genes comprising the signature of the discovery stage described in Table 13. Two amplicons were tested for each gene—one representing the wild-type transcript, and another representing an alternative splice variant. Each amplicon was measured using the labeled samples described in Table 9 herein, as well as the un-labeled samples. Samples from both groups (labeled and un-labeled) were tested in seven 96 well plates as described in Table 25. In order to correct possible run to run variations, the following controls were added: 1. several samples were repeated in all 96 wells plates; 2. control shuffled plate was designed which combined samples from all seven test plates.
To account for possible differences of qRT-PCR measurements between the different plates due to experimental artifacts, a normalization plate was planned. This plate, designated hereinabove ‘shuffled plate’, contained samples from all other plates. Real Time PCR was performed on this plate using the primers appropriate for all candidates in tables 26 and 27. For each other plate (plates 1-7 above) and each amplicon, the samples appearing also in the shuffled plate were examined—the ratio between the transcript abundance as measured in the plate to the abundance as measured in the shuffled plate was calculated, outliers were manually removed, and the geometric mean of the left ratios was taken as an additional multiplicative normalization factor for the plate and amplicon.

[2] = system: kidney tissues of treated or untreated rats; experiment: Real-time qRT-PCR of marker transcripts in kidney tissue panel, discovery stage (Table 22); format: in vivo, rat; details: listed as Dox; for normalized Real Time PCR MMU09507_DB81_seg15: kidney
Description: Before RT preparation the RNA was treated with DNA-free (Ambion, cat. No. AM1906) DNase treatment and removal—according to manufacturer protocol. DNase procedure was repeated until no DNA is detected in a PCR reaction using the RNA samples.
The mixture is then incubated for 5 min at 65° C. and then quickly chilled on ice. Thereafter, 20 μl of 5× SuperscriptII first strand buffer (Invitrogen, Cat. No. Y00146), 9.6 μl 0.1M DTT (Invitrogen, Cat. No. Y00147) and 160 units RNasin (Promega, Cat. No. N251A) are added, and the mixture is incubated for 10 min at 25° C., followed by further incubation at 42° C. for 2 min. […] The resulting cDNA is diluted 1:20 in TE buffer (10 mM Tris pH=8, 1 mM EDTA pH=8).
cDNA (5 μl), prepared as described above, is used as a template in Real-Time PCR reactions using the SYBR Green I assay (PE Applied Biosystem) with specific primers in 100 nM concentration if not indicated otherwise and UNG Enzyme (Eurogentech or equal) Amplification is effected as follows: 50° C. for 2 min, 95° C. for 10 min, and then 40 cycles of 95° C. for 15 sec, followed by 60° C. for 1 min (if not indicated otherwise). Amplification step is followed by dissociation step. Detection is performed by using the PE Applied Biosystem SDS 7000. The cycle in which the reactions achieved a threshold level (Ct) of fluorescence is registered and is used to calculate the relative transcript quantity in the RT reactions. Non-detected samples are assigned Ct value of 41 and are calculated accordingly. The relative quantity is calculated using the equation Q=efficiencŷ-Ct. The efficiency of the PCR reaction is calculated from a standard curve, created by using serial dilutions of several reverse transcription (RT) reactions. To minimize inherent differences in the RT reaction, the resulting relative quantities are normalized to normalization factor calculated as follows: […]
The relative quantity (Q) of each housekeeping gene in each sample is calculated as described above. In order to calculate the “relative Q relative to MED” each Q for each HSKP gene is divided by the median quantity of this gene in all panel samples. To finally achieve the normalization factor of each sample the geometric mean of all four “relative Q relative to MED” was calculated. The normalization factor was then used for further calculations.
The markers of the present invention were tested with regard to their expression in a panel of kidney tissues samples from treated and control rats. Unless otherwise noted, all experimental data relates to the novel polynucleotides and proteins of the present invention, named according to the segment being tested (as expression was tested through RT-PCR as described). Tests were then performed as described in the “Materials and Experimental Procedures” section above.
The qRT-PCR measurements were normalized according to each samples normalization factor as described in “RT Preparation and Real-Time qRT-PCR Analysis” and further multiplied by a constant factor for ease of viewing.

[3] = day1, female rat kidney, listed as Dox
[4] = day1, male rat kidney, listed as Dox
[5] = day28, female rat kidney, listed as Dox
[6] = day28, male rat kidney, listed as Dox
[7] = labeled samples, day1, kidney of individual male/female rats, listed as Dox
[8] = labeled samples, day5, kidney of individual male/female rats, listed as Dox
[9] = labeled samples, day28, kidney of individual male/female rats, listed as Dox
[10] = rat kidney, day1, individual animals (F and M)

COc1cccc2c1C(=O)c1c(O)c3c(c(O)c1C2=O)C[C@@](O)(C(=O)CO)C[C@@H]3O[C@H]1C[C@H](N)[C@H](O)[C@H](C)O1 [Doxorubicin]
H31883_DB71_seg13 normalized qRT-PCR result [1, 3]: 2.054 and 1.752 and 1.003 | MUSCYCG1R_DB81_seg19-20 normalized qRT-PCR result [1, 3]: 1.631 and 1.268 and 0.741 | W41270_DB81_seg11 normalized qRT-PCR result [1, 3]: 1.548 and 1.367 and 0.977 | H31883_DB71_seg13 normalized qRT-PCR result [1, 4]: 0.956 and 0.936 and 0.964 | MUSCYCG1R_DB81_seg19-20 normalized qRT-PCR result [1, 4]: 1.257 and 1.622 and 1.454 | W41270_DB81_seg11 normalized qRT-PCR result [1, 4]: 1.26 and 2.478 and 1.45 | H31883_DB71_seg13 normalized qRT-PCR result [1, 5]: 0.734 and 0.719 and 0.955 | MUSCYCG1R_DB81_seg19-20 normalized qRT-PCR result [1, 5]: 0.964 and 0.653 and 0.54 | W41270_DB81_seg11 normalized qRT-PCR result [1, 5]: 2.157 and 1.462 and 1.023 | H31883_DB71_seg13 normalized qRT-PCR result [1, 6]: 0.686 and 0.442 and 0.586 | MUSCYCG1R_DB81_seg19-20 normalized qRT-PCR result [1, 6]: 0.669 and 1.434 and 0.785 | W41270_DB81_seg11 normalized qRT-PCR result [1, 6]: 1.613 and 3.226 and 1.604 | H31883_DB71_seg13 normalized qRT-PCR expression (Cyclin-G1 (CCNG1) transcript) [1, 7]: 0.993 and 1.283 and 1.41 and 1.46 and 1.116 | MUSCYCG1R_DB81_seg19-20 normalized qRT-PCR expression [1, 7]: 1.387 and 1.761 and 2.256 and 1.516 and 1.627 and 1.551 | W41270_DB81_seg11 normalized qRT-PCR expression (tumor necrosis factor receptor superfamily, member 12a transcript) [1, 7]: 0.824 and 1.286 and 1.43 and 1.148 and 1.501 and 0.935 | AI045075_DB71_seg6 normalized qRT-PCR expression (Interferon stimulated exonuclease 20 (ISG20) transcript) [1, 8]: 1.248 and 1.348 and 1.319 and 1.844 | H31883_DB71_seg13 normalized qRT-PCR expression (Cyclin-G1 (CCNG1) transcript) [1, 8]: 2.129 and 0.905 and 2.586 and 1.227 and 1.377 | MUSCYCG1R_DB81_seg19-20 normalized qRT-PCR expression [1, 8]: 1.321 and 1.723 and 1.536 and 2.913 and 1.438 | W41270_DB81_seg11 normalized qRT-PCR expression (tumor necrosis factor receptor superfamily, member 12a transcript) [1, 8]: 1.017 and 1.053 and 1.551 and 1.791 and 0.851 | W64472_DB81_seg2 normalized qRT-PCR expression (Interferon stimulated exonuclease 20 (ISG20) transcript) [1, 8]: 2.03 and 2.924 and 1.441 and 3.4 and 2.561 | H31883_DB71_seg13 normalized qRT-PCR expression (Cyclin-G1 (CCNG1) transcript) [1, 9]: 1.328 and 1.54 and 1.434 and 1.642 and 1.611 and 1.408 | MUSCYCG1R_DB81_seg19-20 normalized qRT-PCR expression [1, 9]: 0.985 and 2.342 and 1.437 and 1.991 and 2.105 and 1.779 | W41270_DB81_seg11 normalized qRT-PCR expression (tumor necrosis factor receptor superfamily, member 12a transcript) [1, 9]: 1.263 and 0.73 and 2.381 and 1.44 and 0.652 and 0.787 | Label: true label (Normal/Toxic), known renal toxic effect ([1]; rat, in vivo): Toxic | normalized Real Time PCR MMU09507_DB81_seg15 ([2]; female rats, day1): 0.48 and 0.52 and 0.93 | normalized Real Time PCR MMU09507_DB81_seg15 ([2]; female rats, day5): 2.07 and 1.46 and 1.82 | normalized Real Time PCR MMU09507_DB81_seg15 ([2]; female rats, day28): 4.47 and 2.99 and 2.89 | normalized Real Time PCR MMU09507_DB81_seg15 ([2]; male rats, day1): 0.74 and 0.71 and 0.59 | normalized Real Time PCR MMU09507_DB81_seg15 ([2]; male rats, day5): 1.74 and 1.67 | normalized Real Time PCR MMU09507_DB81_seg15 ([2]; male rats, day28): 3.04 and 2.93 and 2.13 | H33998_DB71_seg19 normalized Real Time PCR [2, 10]: 1.25 and 1.34 and 2.14 and 0.97 and 1.07 and 2.75 | MUSCYCG1R_DB81_seg15-17 normalized Real Time PCR [2, 10]: 1.66 and 1.12 and 1.36 and 0.56 and 0.64 and 0.66 | RATLRFI_DB71_seg9 normalized Real Time PCR [2, 10]: 0.25 and 0.21 and 0.31 and 0.46 and 0.48 and 0.24
